Entries after “also recorded” stand apart in the source; their conditions may differ.
Tests used:
CYP2C9 = molecular target: T1, CYP2C9 (Homo sapiens, UniProt P11712); assay: In vitro CYP inhibition, pooled human liver microsomes; format: in vitro ADME; conditions: substrate Tolbutamide
T1 construct: 0.2–0.5 mg/mL pooled human liver microsomes; from tissue; host or cells: pooled human liver microsomes
Experimental: (§1) Next, we tested VZHE-039 at concentrations of 0.1 to 100 µM, considered to be biologically relevant unbound plasma concentrations, for possible CYP inhibition using pooled human liver microsomes and isozyme-specific probe substrates (CYP1A2, CYP2C8, CYP2C9, CYP2C19, CYP2D6, CYP3A4, CYP2B6)[55].
(§2) VZHE-039 was studied for its inhibitory potential of seven major drug metabolizing human cytochrome P450 (CYP) enzymes (CYP1A2, CYP2C8, CYP2C9, CYP2C19, CYP2D6, CYP3A4, CYP2B6) using pooled human liver microsomes as published previously[26],[55]. The probe substrates include tacrine (CYP1A2), amodiaquine (CYP2C8), tolbutamide (CYP2C9), mephenytoin (CYP2C19), dextromethorphan (CYP2D6), midazolam (CYP3A4), testosterone (CYP3A4), and bupropion (CYP2B6). […] Assay conditions were optimized for each human cytochrome P450 substrate. The optimized reaction mixtures (200 μL) contained a final concentration of 0.2–0.5 mg/mL pooled human liver microsomes, 2 mM NADPH in 100 mM potassium phosphate, pH 7.4 buffer with 5 mM MgCl2, and VZHE-039 concentration of 0.1 to 100 µM. The assays were performed in duplicate in 96-well plates at 37 °C for 10–60 min. The reaction was terminated with addition of methanol, followed by incubation at 4 °C for 10 min and centrifuged at 4 °C for 10 min. Effect of VZHE-039 on formation of the respective probe substrate metabolites (velnacrine, N‐desethylamodiaquine, 4-hydroxytolbutamide, 4′-hydroxymephenytoin, dextrophan, 1′-hydroxymidazolam, and 6β-hydroxtestosterone and hydroxybupropion) were determined using LC–MS/MS.

CYP2B6 = molecular target: T2, CYP2B6 (Homo sapiens, UniProt P20813); assay: as above; format: in vitro ADME; conditions: substrate Bupropion
T2 construct: 0.2–0.5 mg/mL pooled human liver microsomes; from tissue; host or cells: pooled human liver microsomes
T2 sequence (P20813 1-491): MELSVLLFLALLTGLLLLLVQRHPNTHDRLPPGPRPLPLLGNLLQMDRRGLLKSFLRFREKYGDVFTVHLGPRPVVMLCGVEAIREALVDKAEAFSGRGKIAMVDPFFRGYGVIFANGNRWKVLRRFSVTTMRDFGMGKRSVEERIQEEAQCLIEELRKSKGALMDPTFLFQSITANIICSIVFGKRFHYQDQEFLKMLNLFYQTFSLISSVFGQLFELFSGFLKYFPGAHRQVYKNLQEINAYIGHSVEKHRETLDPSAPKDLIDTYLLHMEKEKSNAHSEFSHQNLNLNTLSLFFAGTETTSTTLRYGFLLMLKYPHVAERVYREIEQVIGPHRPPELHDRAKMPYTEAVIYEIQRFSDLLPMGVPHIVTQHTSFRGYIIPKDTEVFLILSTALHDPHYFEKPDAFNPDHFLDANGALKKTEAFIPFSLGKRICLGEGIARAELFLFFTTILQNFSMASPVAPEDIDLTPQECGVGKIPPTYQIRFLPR
Experimental: as §1, §2

CYP2C8 = molecular target: T3, CYP2C8 (Homo sapiens, UniProt P10632); assay: as above; format: in vitro ADME; conditions: substrate Amodiaquine
T3 construct: 0.2–0.5 mg/mL pooled human liver microsomes; from tissue; host or cells: pooled human liver microsomes
T3 sequence (P10632 1-490): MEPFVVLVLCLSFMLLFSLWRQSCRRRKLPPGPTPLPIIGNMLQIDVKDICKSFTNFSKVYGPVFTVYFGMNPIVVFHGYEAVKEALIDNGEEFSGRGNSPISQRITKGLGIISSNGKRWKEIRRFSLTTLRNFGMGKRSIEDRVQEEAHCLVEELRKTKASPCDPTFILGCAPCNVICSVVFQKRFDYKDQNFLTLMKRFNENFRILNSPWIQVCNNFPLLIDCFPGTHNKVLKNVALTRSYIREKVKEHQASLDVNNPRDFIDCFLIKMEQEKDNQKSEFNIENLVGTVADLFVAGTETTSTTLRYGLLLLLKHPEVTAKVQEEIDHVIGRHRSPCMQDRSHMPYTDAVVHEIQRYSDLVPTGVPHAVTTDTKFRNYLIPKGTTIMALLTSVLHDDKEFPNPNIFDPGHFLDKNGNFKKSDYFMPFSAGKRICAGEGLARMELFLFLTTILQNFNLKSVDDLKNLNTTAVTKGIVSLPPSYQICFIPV
Experimental: as §1, §2

SS cells = assay: Antisickling activity under anoxia (100% N2); format: cell-based, human; conditions: 2 mM, 100% N2 gas, 30 min
Source text: Therefore, another objective in the targeted design of VZHE-039 was to complement its O2-dependent antisickling activity—common to this class of aromatic aldehydes—with an improved O2-independent antisickling activity through proximity-enhanced auxiliary interactions with the αF-helix. Findings from the VZHE-039 crystallographic studies indicate that we achieved the structural objective of enhanced interactions between the methylhydroxy substituent and the αF-helix. We further asked whether these enhanced interactions would translate to an improvement in the O2-independent antisickling activity—as hypothesized. We therefore explored the potential O2-independent activity of VZHE-039, by testing its antisickling properties under complete deoxygenated/anoxic conditions (i.e., 100% N2). […] For internal control purposes, aliquots from samples used for testing for antisickling studies at 2.5% O2 (see above) were also used for testing the antisickling effect of these compounds under 100% N2 gas, therefore, helping elucidate the antisickling effects due to O2-dependent activity of the compounds. Since this experimental design utilized aliquots of the same samples under different gas conditions, it ensured that the assay was free of any potential errors associated with variability in hematocrit and accuracy in drug concentrations.
We conducted two studies to test the antisickling property of VZHE-039 under anoxia to establish the secondary mechanism of action. In the first study, we conducted antisickling studies as described above and also previously reported (2.5% O2)[33], using 2 mM concentrations of VZHE-039, and the controls vanillin, TD-7 and Voxelotor. After 1 h, aliquot samples were fixed with 2% glutaraldehyde without exposure to air. Then the incubation chamber was opened and exposed to air for 15 min to ensure complete re-oxygenation and reversal of the sickled cells to normal round cells. Reversal was confirmed by microscopy. The incubation chamber was then closed, and the assay was repeated under 100% nitrogen gas for 30 min, at which point aliquots were obtained and fixed. Aliquot samples were then subjected to microscopic morphological analysis of bright field images as previously described. Resulting sickled cells (percentages) were compared across samples, and between aliquots of the same samples that had been obtained either under 2.5% oxygen or 100% nitrogen.

T1 sequence (P11712 whole entry): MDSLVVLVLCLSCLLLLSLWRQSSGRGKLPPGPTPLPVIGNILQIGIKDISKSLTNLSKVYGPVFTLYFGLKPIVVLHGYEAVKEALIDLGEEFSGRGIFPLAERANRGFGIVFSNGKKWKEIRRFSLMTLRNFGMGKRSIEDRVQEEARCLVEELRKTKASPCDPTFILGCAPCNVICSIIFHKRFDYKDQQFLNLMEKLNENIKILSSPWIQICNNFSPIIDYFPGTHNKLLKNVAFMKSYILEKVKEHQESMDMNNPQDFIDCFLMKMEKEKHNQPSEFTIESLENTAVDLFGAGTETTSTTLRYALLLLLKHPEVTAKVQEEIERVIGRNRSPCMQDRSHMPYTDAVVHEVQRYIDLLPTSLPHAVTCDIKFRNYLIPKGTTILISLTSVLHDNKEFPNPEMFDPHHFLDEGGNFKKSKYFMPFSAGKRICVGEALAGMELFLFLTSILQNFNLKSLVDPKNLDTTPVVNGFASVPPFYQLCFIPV

SMILES: O=Cc1c(O)cccc1OCc1cccc(CO)n1 [VZHE-039, 2-((6-(Hydroxymethyl)pyridin-2-yl)methoxy)-6-hydroxybenzaldehyde]
- IC50 (CYP2C9): > 100 µM
- IC50 (CYP2B6): 41.4 µM
- IC50 (CYP2C8): > 100 µM
- Antisickling effect under anoxia (in words) (SS cells): inhibited sickling under complete anoxia; also recorded: identical antisickling effects for VZHE-039 under either hypoxia or anoxia

— article PMC7679387, “VZHE-039, a novel antisickling agent that prevents erythrocyte sickling under both hypoxic and anoxic conditions” (Scientific Reports, 2020)
